Columns and labels:
E. coli (strain RS 218) = test: Preliminary clotting assay (E. coli-mediated clotting of C. albicans cells); assay type: cell-based; conditions: minimal concentration that prevents clotting of C. albicans cells by E. coli RS 218; triplicate
Procedure: Overnight cultures of C. albicans (strain ATCC 60193) and E. coli (strain RS 218) are prepared by suspending colony material from agar plates in 10 ml trypticase soy broth (TSB) each and incubated for 16-18 h at 37° C., the culture of E. coli without shaking, but the culture of C. albicans with agitation on a horizontal shaker at 200 rpm. The cells of 2 ml of each culture are washed twice with 1 ml phosphate buffered saline (PBS) by centrifugation (10 min at 2500×g), discarding the supernatant and re-suspension of the cell pellet in fresh PBS. After the last washing step, the optical density at 600 nm is measured and adjusted to 5.0 for C. albicans (corresponding to approx. 5×10^7 viable cells/ml) and to 3.0 for E. coli (corresponding to approx. 5×10^9 viable cells/ml). […] Each test well is supplied with 33 μl PBS or the test solution of the desired concentration, and 33 μl of E. coli suspension is added and mixed by slightly tapping the plate. After 5 min 33 μl of C. albicans suspension is added to give a total volume of 100 μl per well. As a negative clumping control, one well is left without addition of E. coli. The plate is incubated for 20 min at 37° C. on a horizontal shaker at 150 rpm and the cells are allowed to settle for 10 min at r.t. before the wells are inspected with the help of a magnifier for visual clumps. For each substance the minimal concentration that prevents clotting of C. albicans cells is noted. Each experiment is performed in triplicate.

[1] = test system: GFP tagged E. coli strain UTI89; test: Flow cytometry inhibition assay (adherence of GFP tagged UTI89 to bladder cell line 5637); assay type: cell-based; conditions: for IC50: Escherichia coli; for rIC50: ratio of IC50 to IC50 of reference HM, cell line 5637
Procedure: The GFP tagged E. coli strain UTI89 is statically incubated in Luria-Bertani broth for 24 h, washed twice and adjusted to an optical density at 600 nm (OD600) between 2.0 and 3.0. The human epithelial bladder carcinoma cell line 5637 was grown in RPMI 1640 medium, supplemented with 10% fetal calf serum (FCS), 100 U/ml penicillin and 100 μg/ml streptomycin at 37° C., 5% CO2 in 24-well plates. Cells were infected with 200 μl bacterial suspension (multiplicity of infection of 1:50 (cell:bacteria)), premixed with 25 μl of antagonists at different concentrations. To homogenize the infection, plates were centrifuged at room temperature for 3 min at 600 g. After an incubation of 1.5 h at 37° C., infected cells were washed four times with RPMI 1640 medium and suspended in ice-cold PBS for 5-20 min. Samples were measured with a CyAn ADP flow cytometer (Becton Dickinson, San Jose, Calif.) and analyzed by gating on the eukaryotic cells based on forward (FSC) and side scatter (SSC). A total of 10^4 cells were measured per sample. Data were acquired in a linear mode for the SSC and logarithmic mode for FSC and the green fluorescent channel FL1-H (e.g. GFP). The mean fluorescence intensity (MFI) of FL1-H was counted as a surrogate marker for the adherence of bacteria. Quantification of adhesion was evaluated with the FlowJo software 9.0.1 (Tree Star, Inc., Ashland, Oreg., USA). IC50 values were determined by plotting the concentration of the antagonist in a logarithmic mode versus the MFI and by fitting the curve with the prism software (GraphPad, inhibition curve, variable slope). The relative IC50 (rIC50) is the ratio of the IC50 of the test compound to the IC50 of the reference compound HM (n-heptyl α-D-mannopyranoside.

E. coli strain UTI89 = test: Aggregometer assay (disaggregation of E. coli UTI89 from guinea pig erythrocytes); assay type: cell-based; conditions: relative to heptyl α-D-mannopyranoside (rIC50=1)
Procedure: In analogy to N. Firon, I. Ofek, N. Sharon, Biochem. Biophys. Res. Comm. 1982, 105, 1426-1432, the following assay is conducted: E. coli strain UTI89 is statically incubated in Luria-Bertani broth for 24 h, washed twice and adjusted to an optical density at 600 nm (OD600) of 4.0. The percentage of aggregation of UTI89 to guinea pig erythrocytes (GPE) is quantitatively measured using an APACT 4004 aggregometer (Endotell AG, Allschwil, Switzerland) at 740 nm, 37° C. under stirring at 1000 rpm. For calibration, first the protein poor plasma (PPP) is measured using PBS 1% and set as 100% aggregation, followed by the protein rich plasma (PRP) using GPE at an OD600 of 4.0, set as 0% aggregation. After calibration, the measurement is initiated using 250 μL GPE and 50 μL bacterial suspension. Following the aggregation phase of 600 s, 25 μL of the antagonists at different concentrations are added and disaggregation is monitored over 1400 s. The FimH-deleted mutant of E. coli UTI89 is used to proof FimH-specific GPE agglutination. For evaluation, the area under the disaggregation curve (AUC) is calculated and compared to the reference, heptyl α-D-mannopyranoside (see Table 2). The activities are reported as rel. IC50 (rIC50) with heptyl α-D-mannopyranoside as reference compound (rIC50=1).

[2] = In vivo pharmacokinetics, single dose, urine and plasma sampling; design: species or system mouse; conditions: single i.v. application of 50 mg/kg, applied antagonist detected
Procedure: The aim is the identification of FimH antagonists suitable for intravenous (i.v.) or preferably peroral (p.o.) applications. Before infection studies in a mouse disease model could be performed, the in vivo pharmacokinetic parameters (Cmax, AUC) had to be determined, to ensure the antagonists availability in the target organ (bladder). Single-dose pharmacokinetic studies were performed by i.v. and p.o. application of the FimH antagonists at a concentration of 50 mg/kg followed by urine and plasma sampling. […] Antagonists were applied i.v. by injection into the tail vein and p.o. using a gavage followed by blood and urine sampling (10 μL) after 6 min, 30 min, 1 h, 2 h, 4 h, 6 h, 8 h and 24 h. Before analysis, proteins in blood and urine samples were precipitated using methanol and centrifuged for 11 min at 13,000 rpm. The supernatant was transferred into a 96-well plate and analyzed by LC-MS.

O=[N+]([O-])c1ccc2c(ccn2-c2ccc(O[C@H]3O[C@H](CO)[C@@H](O)[C@H](O)[C@@H]3O)c(Cl)c2)c1 [Compound 29b, 2-Chloro-4-(5-nitroindol-1-yl)phenyl α-D-mannopyranoside]
Average conc. to prevent clotting (E. coli (strain RS 218)): 0.556 µM
IC50 [1]: 590 ± 45 nM
rIC50 [1]: 0.15

O=[N+]([O-])c1ccc2c(ccn2-c2ccc(O[C@H]3O[C@H](CO)[C@@H](O)[C@H](O)[C@@H]3O)c(F)c2)c1 [Compound 34, 2-Fluoro-4-(5-nitroindol-1-yl)phenyl α-D-mannopyranoside]
Average conc. to prevent clotting (E. coli (strain RS 218)): 0.833 µM

CCCCCCCO[C@H]1O[C@H](CO)[C@@H](O)[C@H](O)[C@@H]1O [HM, heptyl α-D-mannopyranoside, reference compound]
Average conc. to prevent clotting (E. coli (strain RS 218)): 42 µM
rIC50 (measured in the aggregometer assay) (E. coli strain UTI89): 1
IC50 [1]: 3900 ± 1600 nM
rIC50 [1]: 1
AUC0-24 i.v. ([2]; plasma): 34.3 ± 33.3 µg·h/mL
AUC0-24 i.v. ([2]; urine): 2469.3 ± 636.4 µg·h/mL

OC[C@H]1O[C@H](Oc2ccc(-n3ccc4ccccc43)cc2Cl)[C@@H](O)[C@@H](O)[C@@H]1O [Compound 29a, 2-Chloro-4-(indol-1-yl)phenyl α-D-mannopyranoside]
Average conc. to prevent clotting (E. coli (strain RS 218)): 1.111 µM

OC[C@H]1O[C@H](Oc2ccc(-n3ccc4ccccc43)cc2F)[C@@H](O)[C@@H](O)[C@@H]1O [Compound 32, 2-Fluoro-4-(indol-1-yl)phenyl α-D-mannopyranoside]
Average conc. to prevent clotting (E. coli (strain RS 218)): 5.556 µM
